According to US12077503B2, “Substituted cyclic amides and their use as herbicides” (FMC CORPORATION, priority 2015, dated 2024):

Assays:
Assay type in all cases: in vivo
[1] = system: giant foxtail (Setaria faberii); assay: Test A postemergence; settings: Setaria faberi, post-emergence, 240 h; for pest or weed control at 125 g/ha: 125 g ai/ha, postemergence, visual injury vs untreated controls after approx. 10 d, 0 = no effect, 100 = complete control, read-out: Foxtail, Giant plant response rating (0 to 100 scale); for pest or weed control at 31 g/ha: Postemergence, 31 g ai/ha, visual injury after approx. 10 d, 0 to 100 scale, 0 no effect, 100 complete control, read-out: Plant response rating, Foxtail, Giant
In short: (§1)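 Greenhouse, ~10 d after spray; visual injury vs untreated controls, 0 = no effect, 100 = complete control. Preemergence: directed soil spray over planted seeds. Postemergence: plants 2–10 cm, 1–2 leaf stage. Loam/sand blend. Compound in non-phytotoxic solvent with surfactant.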

[2] = system: ragweed (common ragweed, Ambrosia elatior); assay: Test A postemergence; settings: Ambrosia artemisiifolia, post-emergence, 240 h; for pest or weed control at 125 g/ha: 125 g ai/ha, postemergence, visual injury vs untreated controls after approx. 10 d, 0 = no effect, 100 = complete control, read-out: Ragweed plant response rating (0 to 100 scale)
In short: as §1

[3] = system: barnyardgrass (Echinochloa crus-galli); assay: Test A postemergence; settings: Echinochloa crus-galli, post-emergence, 240 h; for pest or weed control at 125 g/ha: 125 g ai/ha, postemergence, visual injury vs untreated controls after approx. 10 d, 0 = no effect, 100 = complete control, read-out: Barnyardgrass plant response rating (0 to 100 scale); for pest or weed control at 31 g/ha: Postemergence, 31 g ai/ha, visual injury after approx. 10 d, 0 to 100 scale, 0 no effect, 100 complete control, read-out: Plant response rating, Barnyardgrass
In short: as §1

[4] = system: blackgrass (Alopecurus myosuroides); assay: Test A postemergence; settings: Alopecurus myosuroides, post-emergence, 240 h; for pest or weed control at 125 g/ha: 125 g ai/ha, postemergence, visual injury vs untreated controls after approx. 10 d, 0 = no effect, 100 = complete control, read-out: Blackgrass plant response rating (0 to 100 scale); for pest or weed control at 31 g/ha: Postemergence, 31 g ai/ha, visual injury after approx. 10 d, 0 to 100 scale, 0 no effect, 100 complete control, read-out: Plant response rating, Blackgrass
In short: as §1

Kochia (Kochia scoparia) [5] = assay: Test A postemergence; settings: Bassia scoparia, post-emergence, 240 h; for pest or weed control at 125 g/ha: 125 g ai/ha, postemergence, visual injury vs untreated controls after approx. 10 d, 0 = no effect, 100 = complete control, read-out: Kochia plant response rating (0 to 100 scale); for pest or weed control at 31 g/ha: Postemergence, 31 g ai/ha, visual injury after approx. 10 d, 0 to 100 scale, 0 no effect, 100 complete control, read-out: Plant response rating, Kochia
In short: as §1

[6] = system: Galium (catchweed bedstraw, Galium aparine); assay: Test A postemergence; settings: Galium, post-emergence, 240 h; for pest or weed control at 125 g/ha: 125 g ai/ha, postemergence, visual injury vs untreated controls after approx. 10 d, 0 = no effect, 100 = complete control, read-out: Galium plant response rating (0 to 100 scale); for pest or weed control at 31 g/ha: Postemergence, 31 g ai/ha, visual injury after approx. 10 d, 0 to 100 scale, 0 no effect, 100 complete control, read-out: Plant response rating, Galium
In short: as §1

corn (Zea mays) = assay: Test A postemergence; settings: Zea mays, post-emergence, 240 h; for plant injury at 125 g/ha: 125 g ai/ha, postemergence, visual injury vs untreated controls after approx. 10 d, 0 = no effect, 100 = complete control, read-out: Corn plant response rating (0 to 100 scale); for Corn plant response rating (crop injury, 0 = no effect, 100 = complete kill) at 31 g/ha: Postemergence, 31 g ai/ha, visual injury after approx. 10 d, 0 to 100 scale, 100 complete control
In short: as §1

[7] = system: wheat (Triticum aestivum); assay: Test A postemergence; settings: Triticum aestivum, post-emergence, 240 h; for plant injury at 125 g/ha: 125 g ai/ha, postemergence, visual injury vs untreated controls after approx. 10 d, 0 = no effect, 100 = complete control, read-out: Wheat plant response rating (0 to 100 scale)
In short: as §1

[8] = system: pigweed (Amaranthus retroflexus); assay: Test A postemergence; settings: Amaranthus retroflexus, post-emergence, 240 h; for pest or weed control at 125 g/ha: 125 g ai/ha, postemergence, visual injury vs untreated controls after approx. 10 d, 0 = no effect, 100 = complete control, read-out: Pigweed plant response rating (0 to 100 scale)
In short: as §1

[9] = system: ryegrass, Italian (Italian ryegrass, Lolium multiflorum); assay: Test A postemergence; settings: Lolium multiflorum, post-emergence, 240 h; for pest or weed control at 125 g/ha: 125 g ai/ha, postemergence, visual injury vs untreated controls after approx. 10 d, 0 = no effect, 100 = complete control, read-out: Ryegrass, Italian plant response rating (0 to 100 scale)
In short: as §1

[10] = system: giant foxtail (Setaria faberii); assay: Test A preemergence; settings: Setaria faberi, pre-emergence, 240 h, 0 to 100 scale where 0 is no effect and 100 is complete control, read-out: Foxtail, Giant plant response rating; for pest or weed control at 31 g/ha: 31 g ai/ha, Preemergence; for pest or weed control at 125 g/ha: 125 g ai/ha, preemergence, approx. 10 d
In short: as §1

[11] = system: ragweed (common ragweed, Ambrosia elatior); assay: Test A preemergence; settings: Ambrosia artemisiifolia, pre-emergence, 240 h, 0 to 100 scale where 0 is no effect and 100 is complete control, read-out: Ragweed plant response rating; for pest or weed control at 31 g/ha: 31 g ai/ha, Preemergence; for pest or weed control at 125 g/ha: 125 g ai/ha, preemergence, approx. 10 d
In short: as §1

[12] = system: barnyardgrass (Echinochloa crus-galli); assay: Test A preemergence; settings: Echinochloa crus-galli, pre-emergence, 240 h, 0 to 100 scale where 0 is no effect and 100 is complete control, read-out: Barnyardgrass plant response rating; for pest or weed control at 31 g/ha: 31 g ai/ha, Preemergence; for pest or weed control at 125 g/ha: 125 g ai/ha, preemergence, approx. 10 d
In short: as §1

Kochia (Kochia scoparia) [13] = assay: Test A preemergence; settings: Bassia scoparia, pre-emergence, 240 h, 0 to 100 scale where 0 is no effect and 100 is complete control, read-out: Kochia plant response rating; for pest or weed control at 31 g/ha: 31 g ai/ha, Preemergence; for pest or weed control at 125 g/ha: 125 g ai/ha, preemergence, approx. 10 d
In short: as §1

[14] = system: pigweed (Amaranthus retroflexus); assay: Test A preemergence; settings: Amaranthus retroflexus, pre-emergence, 240 h, 0 to 100 scale where 0 is no effect and 100 is complete control, read-out: Pigweed plant response rating; for pest or weed control at 31 g/ha: 31 g ai/ha, Preemergence; for pest or weed control at 125 g/ha: 125 g ai/ha, preemergence, approx. 10 d
[15] = system: ryegrass, Italian (Italian ryegrass, Lolium multiflorum); assay: Test A preemergence; settings: Lolium multiflorum, pre-emergence, 240 h, 0 to 100 scale where 0 is no effect and 100 is complete control, read-out: Ryegrass, Italian plant response rating; for pest or weed control at 31 g/ha: 31 g ai/ha, Preemergence; for pest or weed control at 125 g/ha: 125 g ai/ha, preemergence, approx. 10 d
In short: as §1

[16] = system: barnyardgrass (Echinochloa crus-galli); assay: Test B flooded paddy test; settings: Echinochloa crus-galli, 250 g ai/ha, Flood; 0 to 100 scale where 0 is no effect and 100 is complete control; read-out: Barnyardgrass plant response rating
In short: (§2)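 Flooding to 3 cm over soil accompanied treatment, which consisted of adding compound to the standing water around 2-leaf plants; depth was then maintained. Visual assessment versus controls followed at 13 to 15 d (scale 0–100, 0 meaning no effect).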

[17] = system: ducksalad (Heteranthera limosa); assay: Test B flooded paddy test; settings: Heteranthera limosa, 250 g ai/ha, Flood; 0 to 100 scale where 0 is no effect and 100 is complete control; read-out: Ducksalad plant response rating
In short: as §2

rice (Oryra sativa) = assay: Test B flooded paddy test; settings: Oryza sativa, 250 g ai/ha, Flood; 0 to 100 scale where 0 is no effect and 100 is complete control; read-out: Rice plant response rating
In short: as §2

[18] = system: sedge, umbrella (small-flower umbrella sedge, Cyperus difformis); assay: Test B flooded paddy test; settings: Cyperus difformis, 250 g ai/ha, Flood; 0 to 100 scale where 0 is no effect and 100 is complete control; read-out: Sedge, Umbrella plant response rating
In short: as §2

Row | Compound | pest or weed control at 125 g/ha [1] [%] | pest or weed control at 31 g/ha [1] [%] | pest or weed control at 125 g/ha [2] [%] | pest or weed control at 125 g/ha [3] [%] | pest or weed control at 31 g/ha [3] [%] | pest or weed control at 125 g/ha [4] [%] | pest or weed control at 31 g/ha [4] [%] | pest or weed control at 125 g/ha (Kochia (Kochia scoparia) [5]) [%] | pest or weed control at 31 g/ha (Kochia (Kochia scoparia) [5]) [%] | pest or weed control at 125 g/ha [6] [%] | pest or weed control at 31 g/ha [6] [%] | plant injury at 125 g/ha (corn (Zea mays)) [%] | Corn plant response rating (crop injury, 0 = no effect, 100 = complete kill) at 31 g/ha (corn (Zea mays)) [%] | plant injury at 125 g/ha [7] [%] | pest or weed control at 125 g/ha [8] [%] | pest or weed control at 125 g/ha [9] [%] | pest or weed control at 31 g/ha [10] [%] | pest or weed control at 125 g/ha [10] [%] | pest or weed control at 31 g/ha [11] [%] | pest or weed control at 125 g/ha [11] [%] | also measured
1 | CN1CC[C@H](c2ccc3c(c2)OC(F)(F)O3)[C@@H](C(=O)Nc2cccc(Cl)c2F)C1=O [Compound 1174] | 80 | 40 | 0 | 70 | 70 | 0 | 0 | 0 | 0 | 0 | 0 | 50 | 0 | 30 | 0 | 0 | 80 | 90 | 0 | 0 | pest or weed control at 31 g/ha [12]: 80%; pest or weed control at 125 g/ha [12]: 100%; pest or weed control at 31 g/ha (Kochia (Kochia scoparia) [13]): 0%; pest or weed control at 125 g/ha (Kochia (Kochia scoparia) [13]): 0%; pest or weed control at 31 g/ha [14]: 0%; pest or weed control at 125 g/ha [14]: 0%; pest or weed control at 31 g/ha [15]: 0%; pest or weed control at 125 g/ha [15]: 40%; pest or weed control at 250 g/ha [16]: 70%; pest or weed control at 250 g/ha [17]: 90%; pest or weed control at 250 g/ha (rice (Oryra sativa)): 20%; pest or weed control at 250 g/ha [18]: 0%
2 | O=C1NC[C@H](c2csc3c2CCC3)[C@H]1C(=O)Nc1cccc(F)c1F [Compound 1164] | 0 | 0 | 0 | 80 | 30 | 0 | 0 | 0 | 0 | 30 | 0 | 0 | 0 | 0 | 0 | 0 | 30 | 30 | 0 | 0 | pest or weed control at 31 g/ha ([2]; Postemergence, 31 g ai/ha, visual injury after approx. 10 d, 0 to 100 scale, 0 no effect, 100 complete control, read-out: Plant response rating, Ragweed): 0%; plant injury at 31 g/ha ([7]; Postemergence, 31 g ai/ha, visual injury after approx. 10 d, 0 to 100 scale, 0 no effect, 100 complete control, read-out: Plant response rating, Wheat): 0%; pest or weed control at 31 g/ha ([8]; Postemergence, 31 g ai/ha, visual injury after approx. 10 d, 0 to 100 scale, 0 no effect, 100 complete control, read-out: Plant response rating, Pigweed): 0%; pest or weed control at 31 g/ha ([9]; Postemergence, 31 g ai/ha, visual injury after approx. 10 d, 0 to 100 scale, 0 no effect, 100 complete control, read-out: Plant response rating, Ryegrass, Italian): 0%; pest or weed control at 31 g/ha [12]: 60%; pest or weed control at 125 g/ha [12]: 80%; pest or weed control at 31 g/ha (Kochia (Kochia scoparia) [13]): 0%; pest or weed control at 125 g/ha (Kochia (Kochia scoparia) [13]): 20%; pest or weed control at 31 g/ha [14]: 0%; pest or weed control at 125 g/ha [14]: 0%; pest or weed control at 31 g/ha [15]: 0%; pest or weed control at 125 g/ha [15]: 0%; pest or weed control at 250 g/ha [16]: 40%; pest or weed control at 250 g/ha [17]: 95%; pest or weed control at 250 g/ha (rice (Oryra sativa)): 0%; pest or weed control at 250 g/ha [18]: 0%
